Earlier results in patent publication US20200360276A1 (Aerovate Therapeutics, Inc., priority 2019, published 2020).

How the values were obtained:
[1] = tested on: platelet-derived growth factor receptor (PDGFR)
[2] = relative to imatinib parent compound
[3] = aqueous solution, dependence on pH
[4] = relative to imatinib parent compound; remark: listed apart in the source

solubility [3]: increases as the pH drops
Compound: Cc1ccc(NC(=O)c2ccc(CN3CCNCC3)cc2)cc1Nc1nccc(-c2cccnc2)n1 [N-desmethyl imatinib]
inhibition of PDGFR [1]: potent inhibitor
half-life [2]: increased half-life relative to the parent imatinib compound
potency [4]: same potency as the imatinib parent compound
